Literature values as cited in patent US9918950B2, “Targeted treatment of anerobic cancer” (University Hospitals Cleveland Medical Center, priority 2012, dated 2018).

Assays:
[1] = tested on: 4T1 mouse mammary carcinoma cells; conditions: 4T1 window chamber tumors
[2] = tested on: HCT116 human colon carcinoma cells; conditions: HCT116 window chamber tumors

Question: For Nc1n[n+]([O-])c2ccccc2[n+]1[O-] [tirapazamine], which “time required for incipient angiogenesis versus saline treatment” value ([1]; n=8, log-rank P=0.66) is on record?
Answer: No significant difference

Question: What about the “median time required for the initial hypoxic response” value ([1]; versus 4 days saline, n=8, P<0.05) of the same compound?
Answer: 5.5 days

Question: And the “time required for onset of incipient angiogenesis versus saline treatment” value ([2]; n=8, log-rank P=0.33)?
Answer: No significant difference

Question: And the “median time required for the initial hypoxic response” value ([2]; versus 3.5 days saline, Kaplan-Meier, n=8, P<0.001)?
Answer: 9.5 days
